Measured values taken from patent publication USRE47302E1 (ONYX THERAPEUTICS INC., priority 2013, dated 2019).
≈ marks a conversion by molar mass, not a printed value.

What was measured:
[1] = molecular target: T1, immunoproteasome subunit LMP7 (Homo sapiens, UniProt P28062); assay: Proteasome active-site ELISA (ProCISE), LMP7, MOLT-4 lysate; type: biochemical; settings: MOLT4 lysate, 1 h continuous treatment, 25° C.
T1 construct: Lysate from the human acute lymphoblastic leukemia cell line, MOLT-4; endogenous in cells; host or cells: MOLT-4
How it was run: (§1)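 MOLT-4 cell lysate treated 1 h at 25 °C with compound; probe-bound subunits denatured, pulled down on streptavidin beads and detected with subunit-specific antibodies plus HRP chemiluminescence.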

[2] = molecular target: T2, proteasome subunit β5 (beta5) (Homo sapiens, UniProt P28074); assay: Proteasome active-site ELISA (ProCISE), beta5, MOLT-4 lysate; type: biochemical; settings: MOLT4 lysate, human, 1 h continuous treatment, 25° C.
T2 construct: Lysate from the human acute lymphoblastic leukemia cell line, MOLT-4; endogenous in cells; host or cells: MOLT-4
How it was run: as §1

[3] = molecular target: human 20S immunoproteasome (i20S) (Homo sapiens, UniProt P28062); assay: 20S proteasome assay, chymotrypsin-like activity (succinyl-Leu-Leu-Val-Tyr-AMC), i20S; type: biochemical; settings: LLVY substrate, 1 h continuous
Source text: (§2) Assay buffer consisted of TE buffer [20 mmol/L Tris (pH 8.0), 0.5 mmol/L EDTA] with (20S) or without (cell lysate) 0.03% SDS. Reactions were initiated by enzyme or lysate addition and monitored for AMC product formation at 27jC with a plate-based spectofluorometer (Tecan).

Solubility pH 7 = settings: pH 7, aqueous buffer
[4] = molecular target: human constitutive 20S proteasome (c20S) (Homo sapiens, UniProt P28074); assay: 20S proteasome assay, chymotrypsin-like activity (succinyl-Leu-Leu-Val-Tyr-AMC), c20S; type: biochemical; settings: LLVY substrate, 1 h continuous
Source text: as §2

| SMILES | IC50 [1] [nM] | IC50 [2] [nM] | IC50 [3] [nM] | solubility (Solubility pH 7) [µg/mL] | IC50 [4] [nM] |
| --- | --- | --- | --- | --- | --- |
| COc1ccc(C[C@H](NC(=O)[C@H](C)NC(=O)CN2CCOCC2)C(=O)N[C@@H](CC2CCCC2)C(=O)[C@@]2(C)CO2)cc1 [Compound C-1005, (S)-N-((S)-3-cyclopentyl-1-((R)-2-methyloxiran-2-yl)-1-oxopropan-2-yl)-3-(4-methoxyphenyl)-2-((S)-2-(2-morpholinoacetamido)propanamido)propanamide] | 185 | 1940 | 70.4 | 1760 (≈ 3080 µM) | 519 |
| C[C@H](NC(=O)CN1CCOCC1)C(=O)N[C@@H](Cc1ccc2occc2c1)C(=O)N[C@@H](CC1CCCC1)C(=O)[C@@]1(C)CO1 [Compound C-1007, (S)-3-(benzofuran-5-yl)-N-((S)-3-cyclopentyl-1-((R)-2-methyloxiran-2-yl)-1-oxopropan-2-yl)-2-((S)-2-(2-morpholinoacetamido)propanamido)propanamide] | 314 | 2360 | 106 | 878 (≈ 1510 µM) | 440 |
| COc1ccc(C[C@H](NC(=O)[C@H](C)NC(=O)CN2CCOCC2)C(=O)N[C@@H](CC2=CCCC2)C(=O)[C@@]2(C)CO2)cc1 [Compound C-1009, (S)-N-((S)-3-(Cyclopent-1-en-1-yl)-1-((R)-2-methyloxiran-2-yl)-1-oxopropan-2-yl)-3-(4-methoxyphenyl)-2-((S)-2-(2-morpholinoacetamido)propanamido)propanamide] | 83.1 | 926 | 46.2 | 2730 (≈ 4790 µM) | 351 |
| COc1ccc(C[C@H](NC(=O)[C@H](C)NC(=O)CC2CCOCC2)C(=O)N[C@@H](CC2CCCC2)C(=O)[C@@]2(C)CO2)cc1 [Compound C-1010, (S)-N-((S)-3-cyclopentyl-1-((R)-2-methyloxiran-2-yl)-1-oxopropan-2-yl)-3-(4-methoxyphenyl)-2-((S)-2-(2-(tetrahydro-2H-pyran-4-yl)acetamido)propanamido)propanamide] | 99.6 | 695 | 24.4 | 185 (≈ 324 µM) | 119 |
| COc1ccc(C[C@H](NC(=O)[C@@H](C)NC(=O)CC2CCOCC2)C(=O)N[C@@H](CC2CCCC2)C(=O)[C@@]2(C)CO2)cc1 [Compound C-1011, (S)-N-((S)-3-cyclopentyl-1-((R)-2-methyloxiran-2-yl)-1-oxopropan-2-yl)-3-(4-methoxyphenyl)-2-((R)-2-(2-(tetrahydro-2H-pyran-4-yl)acetamido)propanamido)propanamide] | 556 | 6970 | 98.8 | 1120 (≈ 1950 µM) | 1550 |
| C[C@H](NC(=O)CN1CCOCC1)C(=O)N[C@@H](Cc1ccc2c(c1)OCO2)C(=O)N[C@@H](CC1CCCC1)C(=O)[C@@]1(C)CO1 [Compound C-1012, (S)-3-(benzo[d][1,3]dioxol-5-yl)-N-((S)-3-cyclopentyl-1-((R)-2-methyloxiran-2-yl)-1-oxopropan-2-yl)-2-((S)-2-(2-morpholinoacetamido)propanamido)propanamide] | 167 | 1280 | 92.5 | 1720 (≈ 2940 µM) | 470 |
| C[C@H](NC(=O)CN1CCOCC1)C(=O)N[C@@H](Cc1coc2ccccc12)C(=O)N[C@@H](CC1CCCC1)C(=O)[C@@]1(C)CO1 [Compound C-1015, (S)-3-(benzofuran-3-yl)-N-((S)-3-cyclopentyl-1-((R)-2-methyloxiran-2-yl)-1-oxopropan-2-yl)-2-((S)-2-(2-morpholinoacetamido)propanamido)propanamide] | 498 | 1140 | 167 | 212 (≈ 364 µM) | 506 |
| COc1ccc(C[C@H](NC(=O)[C@H](C)NC(=O)CN2CCOCC2)C(=O)N[C@@H](CC2CCCC2)C(=O)[C@@]2(C)CO2)cc1O [Compound C-1018, (S)-N-((S)-3-cyclopentyl-1-((R)-2-methyloxiran-2-yl)-1-oxopropan-2-yl)-3-(3-hydroxy-4-methoxyphenyl)-2-((S)-2-(2-morpholinoacetamido)propanamido)propanamide] | 184 | 1730 | 170 | 5840 (≈ 9910 µM) | 656 |
| COc1ccc(C[C@H](NC(=O)[C@@H](C)NC(=O)C2CCCC2)C(=O)N[C@@H](CC2CCCC2)C(=O)[C@@]2(C)CO2)cc1 [Compound C-1021, N-((R)-1-(((S)-1-(((S)-3-cyclopentyl-1-((R)-2-methyloxiran-2-yl)-1-oxopropan-2-yl)amino)-3-(4-methoxyphenyl)-1-oxopropan-2-yl)amino)-1-oxopropan-2-yl)cyclopentanecarboxamide] | 113 | 1900 | 144 | 19.3 (≈ 35.6 µM) | 3540 |
| COc1ccc([C@@H](O)[C@H](NC(=O)[C@H](C)NC(=O)CN2CCOCC2)C(=O)N[C@@H](CC2CCCC2)C(=O)[C@@]2(C)CO2)cc1 [Compound C-1022, (2S,3R)-N-((S)-3-Cyclopentyl-1-((R)-2-methyloxiran-2-yl)-1-oxopropan-2-yl)-3-hydroxy-3-(4-methoxyphenyl)-2-((S)-2-(2-morpholinoacetamido)propanamido)propanamide] | 85.1 | 1110 | 115 | 4050 (≈ 6880 µM) | 729 |
| C[C@H](NC(=O)CN1CCOCC1)C(=O)N[C@@H](Cc1ccc(S(C)(=O)=O)cc1)C(=O)N[C@@H](CC1CCCC1)C(=O)[C@@]1(C)CO1 [Compound C-1027, (S)-N-((S)-3-cyclopentyl-1-((R)-2-methyloxiran-2-yl)-1-oxopropan-2-yl)-3-(4-(methylsulfonyl)phenyl)-2-((S)-2-(2-morpholinoacetamido)propanamido)propanamide] | 165 | 1050 | 108 | 5750 (≈ 9260 µM) | 775 |
| COc1ccc(C[C@H](NC(=O)[C@@H](C)NC(=O)C2CCOCC2)C(=O)N[C@@H](CC2CCCC2)C(=O)[C@@]2(C)CO2)cc1 [Compound C-1028, N-((R)-1-(((S)-1-(((S)-3-cyclopentyl-1-((R)-2-methyloxiran-2-yl)-1-oxopropan-2-yl)amino)-3-(4-methoxyphenyl)-1-oxopropan-2-yl)amino)-1-oxopropan-2-yl)tetrahydro-2H-pyran-4-carboxamide] | 52.6 | 807 | 53.8 | 215 (≈ 385 µM) | 1010 |
| COc1ccc(C[C@H](NC(=O)[C@@H](C)NC(=O)C2CC(=O)C2)C(=O)N[C@@H](CC2CCCC2)C(=O)[C@@]2(C)CO2)cc1 [Compound C-1029, N-((R)-1-(((S)-1-(((S)-3-cyclopentyl-1-((R)-2-methyloxiran-2-yl)-1-oxopropan-2-yl)amino)-3-(4-methoxyphenyl)-1-oxopropan-2-yl)amino)-1-oxopropan-2-yl)-3-oxocyclobutanecarboxamide] | 303 | 3790 | 214 | 822 (≈ 1520 µM) | 4110 |
| COc1ccc(C[C@H](NC(=O)[C@H](C)NC(=O)CN2CCOCC2)C(=O)N[C@@H](CC2CCCC2)C(=O)[C@H]2CO2)cc1 [Compound C-1030, (S)-N-((S)-3-cyclopentyl-1-((R)-oxiran-2-yl)-1-oxopropan-2-yl)-3-(4-methoxyphenyl)-2-((S)-2-(2-morpholinoacetamido)propanamido)propanamide] | 11.2 | 497 | 7.93 | 220 (≈ 394 µM) | 201 |
| COc1ccc(C[C@H](NC(=O)[C@H](C)NC(=O)CN2CCC(F)(F)C2)C(=O)N[C@@H](CC2CCCC2)C(=O)[C@@]2(C)CO2)cc1 [Compound C-1048, (S)-N-((S)-3-cyclopentyl-1-((R)-2-methyloxiran-2-yl)-1-oxopropan-2-yl)-2-((S)-2-(2-(3,3-difluoropyrrolidin-1-yl)acetamido)propanamido)-3-(4-methoxyphenyl)propanamide] | – | – | 549 | 153 (≈ 258 µM) | 2630 |
| COc1ccc(C[C@H](NC(=O)[C@@H](C)NC(=O)[C@@H]2CCC(=O)NC2)C(=O)N[C@@H](CC2CCCC2)C(=O)[C@@]2(C)CO2)cc1 [Compound C-1058, (R)-N-((R)-1-(((S)-1-(((S)-3-cyclopentyl-1-((R)-2-methyloxiran-2-yl)-1-oxopropan-2-yl)amino)-3-(4-methoxyphenyl)-1-oxopropan-2-yl)amino)-1-oxopropan-2-yl)-6-oxopiperidine-3-carboxamide] | – | – | 1610 | 3010 (≈ 5270 µM) | 54800 |
| COc1ccc(C[C@H](NC(=O)[C@@H](C)NC(=O)[C@H]2CCC(=O)NC2)C(=O)N[C@@H](CC2CCCC2)C(=O)[C@@]2(C)CO2)cc1 [Compound C-1059, (S)-N-((R)-1-(((S)-1-(((S)-3-cyclopentyl-1-((R)-2-methyloxiran-2-yl)-1-oxopropan-2-yl)amino)-3-(4-methoxyphenyl)-1-oxopropan-2-yl)amino)-1-oxopropan-2-yl)-6-oxopiperidine-3-carboxamide] | – | – | 1650 | 6010 (≈ 10500 µM) | 38400 |
| C[C@H](NC(=O)CN1CCOCC1)C(=O)N[C@@H](Cc1ccc(F)cn1)C(=O)N[C@@H](Cc1ccccc1)C(=O)[C@@]1(C)CO1 [Compound C-1154, (S)-3-(5-fluoropyridin-2-yl)-N-((S)-1-((R)-2-methyloxiran-2-yl)-1-oxo-3-phenylpropan-2-yl)-2-((S)-2-(2-morpholinoacetamido)propanamido)propanamide] | – | – | 113 | 1910 (≈ 3350 µM) | 301 |
